From patent US7964558B2, “Therapeutic applications for C-peptide” (La Jolla, priority 2003, dated 2011)

Tests used:
[1] = tested on: diabetic BB/Wor rats; experiment: Nerve conduction velocity in motor and sensory (sciatic-tibial) nerves of diabetic BB/Wor rats; type: in vivo, rat
Procedure: Further technical details can be found in Sima et al., Diabetologia (2001) 44: 889-897.
(§1) Prediabetic male BB/Wor rats were used. Ten rats were used in each group, where the animals were closely age-matched. They were maintained in metabolic cages with free access to water and rat chow. Bodyweight, urine volume and glucosuria were monitored daily to ascertain onset of diabetes. Immediately after the onset of diabetes, administration of C-peptides was commenced in either a single dose/24 hours, three doses/24 hours or as a continuous infusion by osmopump.
(§2) The single dose given was 75 nmol/kg and the three doses given were each 25 nmol/kg. The continuous infusion gave a dose of 75 nmol/kg over a 24 hour period.
Synthetic rat C-peptide II with a purity of more than 98% by HPLC was used (Genosys, Cambridge, UK) dissolved in saline (12 mg/ml). Control rats were given a dose of saline instead of C-peptide.
The nerve conduction velocity in motor and sensory nerves and Na^+K^+ATPase levels in the rats were measured. Baseline nerve conduction velocity was measured within 24 hours of onset of diabetes. […]
(§3) Statistical analysis. The results are presented as means±SE and the significance of differences was calculated by analysis of variance (ANOVA). Group differences were assessed by post hoc analysis using the Student-Newman-Keul test. […]

[2] = tested on: Na+K+ATPase; experiment: Na+K+ATPase activity in the sciatic nerve of diabetic BB/Wor rats; type: in vivo, rat; conditions: once daily dose 75 nmol/kg, 8 weeks, sciatic nerve (FIG. 4)
Procedure: as §1, §2
(§4) Synthetic rat C-peptide II with a purity of more than 98% by HPLC was used (Genosys, Cambridge, UK) dissolved in saline (12 mg/ml). Control rats were given a dose of saline instead of C-peptide. […]
For Na^+/K^+-ATPase activity, nerve samples were homogenized in 2 ml of 0.2 mol/l sucrose and 0.02 mol/l TRIS-HCl at pH 7.5. […] Na^+/K^+-ATPase activity was defined as the difference before and after ouabain and was expressed as μmol ADP formed per gram of wet weight per hour.
as §3

[3] = tested on: diabetic BB/Wor rats; experiment: Morphometric and teased fibre assessment of sural nerve in diabetic BB/Wor rats; type: in vivo, rat; conditions: once daily dose 75 nmol/kg, 8 weeks, compared to diabetic rats (FIG. 5)
Procedure: as §1, §2, §4
Teased fibre examinations. A mean of 168±4 myelinated fibres were teased from each sural nerve and scored for specific changes. […] Changes were expressed as percentages of total fibres.
as §3

[4] = in humans; cited from earlier work
[5] = dose injected into a rat; expected; cited from earlier work

## C-peptide: Synthetic rat C-peptide II, purity more than 98% by HPLC (Genosys), dissolved in saline; used in Example 1 (EVEDPQVGQVELGAGPGAGSEQTLALEVARQ; Ins Rodent C-peptide)
[1]; nerve conduction velocity and Na+K+ATPase activity, 75 nmol/kg once daily vs 3 x 25 nmol/kg daily or 75 nmol/kg/24 h continuous infusion by osmopump
  effectiveness of once daily dose compared with other dosing regimens: as effective as three daily dose or a continuous infusion
[1]; once daily dose 75 nmol/kg, 8 weeks, diabetic BB/Wor rats, motor and sensory nerves (FIGS. 2, 3)
  nerve conduction velocity: clearly and sufficiently improved
[2]
  Na+K+ATPase activity: clearly and sufficiently improved
[3]
  morphology of cells (morphometric data): improved morphology
[4]
  half-life: approximately 30 minutes
[5]
  time to disappear entirely from circulation: 2 to 3 h
